In the supplement of paper PMC10627819:

Key:
B. subtilis 168 [1] = test: fitness (endpoint OD595 vs no drug) (fraction); higher = more growth
Summary of the method: (§1)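 In 384-well plates at 37 °C, cultures began at OD595 0.01 in 30 µl, with 55 µl used for S. pneumoniae. OD595 readings every 30 min for 14 h were corrected by the first reading. Fitness divides the stationary-phase transition optical density by the robust mean of no-drug control wells. The result is capped at 1.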

S. aureus DSM 20231 [2] = test: as above
Summary of the method: as §1

S. aureus Newman [3] = test: as above
Summary of the method: as §1

S. pneumoniae D39V [4] = test: as above
Summary of the method: as §1

B. subtilis 168 [5] = test: Bliss interaction score (quartile over a dose matrix) (fitness difference); higher = more antagonism (negative = synergy)
Summary of the method: (§2)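 Fitness is OD595 at stationary-phase entry relative to the plate's robust no-drug mean, capped at 1. Single-drug fitness was inferred from combinations. The Bliss score is observed minus product-expected fitness, summarised by quartiles over technical, biological and donor/recipient replicates.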

S. aureus DSM 20231 [6] = test: as above
Summary of the method: as §2

S. aureus Newman [7] = test: as above
Summary of the method: as §2

S. pneumoniae D39V [8] = test: as above
Summary of the method: as §2
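Throughout, for Bliss interaction score (quartile over a dose matrix): first quartile when negative (synergy) and third quartile when positive (antagonism).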

COc1cccc2c1C(=O)c1c(O)c3c(c(O)c1C2=O)C[C@@](O)(C(=O)CO)C[C@@H]3O[C@H]1C[C@H](N)[C@H](O)[C@H](C)O1 [Doxorubicin] + Cc1onc(-c2ccccc2)c1C(=O)N[C@@H]1C(=O)N2[C@@H]1SC(C)(C)[C@@H]2C(=O)O [Oxacillin]
fitness
Settings | first compound 0.25 µg/mL | first compound 0.5 µg/mL | first compound 0.625 µg/mL | first compound 1 µg/mL | first compound 1.25 µg/mL | first compound 2.5 µg/mL
B. subtilis 168 [1], partner 0.002 µg/mL | – | – | 0.995 | – | 0.895 | 0.749
B. subtilis 168 [1], partner 0.004 µg/mL | – | – | 0.932 | – | 0.89 | 0.675
B. subtilis 168 [1], partner 0.008 µg/mL | – | – | 0.881 | – | 0.871 | 0.512
S. aureus DSM 20231 [2], partner 0.0156 µg/mL | – | – | 0.738 | – | 0.756 | 0.599
S. aureus DSM 20231 [2], partner 0.0312 µg/mL | – | – | 0.604 | – | 0.585 | 0.532
S. aureus DSM 20231 [2], partner 0.0625 µg/mL | – | – | 0.479 | – | 0.481 | 0.466
S. aureus Newman [3], partner 0.0156 µg/mL | – | – | 0.705 | – | 0.671 | 0.671
S. aureus Newman [3], partner 0.0312 µg/mL | – | – | 0.637 | – | 0.633 | 0.645
S. aureus Newman [3], partner 0.0625 µg/mL | – | – | 0.582 | – | 0.583 | 0.569
S. pneumoniae D39V [4], partner 0.005 µg/mL | ≥ 1 | ≥ 1 | – | 0.997 | – | –
S. pneumoniae D39V [4], partner 0.01 µg/mL | 0.941 | 0.973 | – | 0.924 | – | –
S. pneumoniae D39V [4], partner 0.02 µg/mL | 0.889 | 0.897 | – | 0.891 | – | –
S. pneumoniae D39V [4], partner 0.04 µg/mL | 0.252 | 0.337 | – | 0.323 | – | –

fitness, B. subtilis 168 [1], one replicate
Settings | partner 0.0078 µg/mL | partner 0.0155 µg/mL | partner 0.031 µg/mL | partner 0.075 µg/mL | partner 0.15 µg/mL | partner 0.3 µg/mL
first compound 0.625 µg/mL | ≥ 1 | ≥ 1 | 0.943 | 0.468 | 0.0267 | 0.0431
first compound 1.25 µg/mL | 0.965 | 0.934 | 0.857 | 0.496 | 0.0281 | 0.0304
first compound 2.5 µg/mL | 0.652 | 0.666 | 0.477 | 0.0449 | 0.0184 | 0.0211

Settings | Bliss interaction score
B. subtilis 168 [5] | 0.0758
S. aureus DSM 20231 [6] | -0.0629
S. aureus Newman [7] | 0.0538
S. pneumoniae D39V [8] | 0.0665

COc1cccc2c1C(=O)c1c(O)c3c(c(O)c1C2=O)C[C@@](O)(C(=O)CO)C[C@@H]3O[C@H]1C[C@H](N)[C@H](O)[C@H](C)O1 [Doxorubicin] + O=C(O[C@@H]1Cc2c(O)cc(O)cc2O[C@@H]1c1cc(O)c(O)c(O)c1)c1cc(O)c(O)c(O)c1 [EGCG]
fitness
Settings | partner 6.25 µg/mL | partner 12.5 µg/mL | partner 25 µg/mL | partner 50 µg/mL
B. subtilis 168 [1], first compound 0.625 µg/mL | 0.934 | 0.617 | – | –
B. subtilis 168 [1], first compound 1.25 µg/mL | 0.932 | 0.554 | – | –
B. subtilis 168 [1], first compound 2.5 µg/mL | 0.737 | 0.429 | – | –
S. aureus DSM 20231 [2], first compound 0.625 µg/mL | – | 0.688 | 0.707 | –
S. aureus DSM 20231 [2], first compound 1.25 µg/mL | – | 0.708 | 0.676 | –
S. aureus DSM 20231 [2], first compound 2.5 µg/mL | – | 0.728 | 0.715 | –
S. aureus Newman [3], first compound 0.625 µg/mL | – | 0.731 | 0.712 | –
S. aureus Newman [3], first compound 1.25 µg/mL | – | 0.705 | 0.703 | 0.594
S. aureus Newman [3], first compound 2.5 µg/mL | – | 0.678 | 0.66 | 0.617
S. pneumoniae D39V [4], first compound 0.25 µg/mL | – | 0.916 | 0.987 | 0.924
S. pneumoniae D39V [4], first compound 0.5 µg/mL | – | 0.904 | 0.845 | ≥ 1
S. pneumoniae D39V [4], first compound 1 µg/mL | – | – | 0.804 | 0.903

Settings | Bliss interaction score
B. subtilis 168 [5] | -0.0819
S. aureus DSM 20231 [6] | -0.107
S. aureus Newman [7] | 0.0447
S. pneumoniae D39V [8] | 0.0782

C[C@@H]1O[C@@H]1P(=O)(O)O [Fosfomycin] + CC1=C\[C@@H](O)CC(=O)Cc2nc(co2)C(=O)N2CCC=C2C(=O)O[C@H](C(C)C)[C@H](C)/C=C/C(=O)NC\C=C\1 [Virginiamycin M1]
fitness
Settings | partner 0.0625 µg/mL | partner 0.125 µg/mL | partner 0.25 µg/mL | partner 0.5 µg/mL | partner 1 µg/mL | partner 2 µg/mL
B. subtilis 168 [1], first compound 1.562 µg/mL | 0.728 | 0.688 | 0.727 | – | – | –
B. subtilis 168 [1], first compound 3.124 µg/mL | 0.603 | 0.565 | 0.576 | – | – | –
B. subtilis 168 [1], first compound 6.248 µg/mL | 0.488 | 0.43 | 0.427 | – | – | –
S. aureus DSM 20231 [2], first compound 0.781 µg/mL | 0.755 | 0.783 | 0.783 | – | – | –
S. aureus DSM 20231 [2], first compound 1.562 µg/mL | 0.533 | 0.581 | 0.605 | – | – | –
S. aureus DSM 20231 [2], first compound 3.124 µg/mL | 0.487 | 0.49 | 0.506 | – | – | –
S. aureus Newman [3], first compound 0.781 µg/mL | 0.538 | 0.567 | 0.555 | – | – | –
S. aureus Newman [3], first compound 1.562 µg/mL | 0.503 | 0.511 | 0.528 | – | – | –
S. aureus Newman [3], first compound 3.124 µg/mL | 0.173 | 0.168 | 0.149 | – | – | –
S. pneumoniae D39V [4], first compound 1.25 µg/mL | – | – | – | 0.958 | 0.944 | 0.928
S. pneumoniae D39V [4], first compound 2.5 µg/mL | – | – | – | 0.987 | 0.956 | 0.905
S. pneumoniae D39V [4], first compound 5 µg/mL | – | – | – | 0.852 | 0.831 | 0.854

fitness, one replicate
Settings | first compound 0.781 µg/mL | first compound 1.25 µg/mL | first compound 1.562 µg/mL | first compound 2.5 µg/mL | first compound 3.124 µg/mL | first compound 5 µg/mL
S. aureus DSM 20231 [2], partner 0.5 µg/mL | 0.847 | – | 0.614 | – | 0.412 | –
S. aureus DSM 20231 [2], partner 1 µg/mL | 0.771 | – | 0.643 | – | 0.386 | –
S. aureus Newman [3], partner 0.5 µg/mL | 0.626 | – | 0.557 | – | 0.299 | –
S. aureus Newman [3], partner 1 µg/mL | 0.614 | – | 0.478 | – | 0.182 | –
S. aureus Newman [3], partner 2 µg/mL | 0.463 | – | 0.297 | – | 0.0494 | –
S. pneumoniae D39V [4], partner 0.15 µg/mL | – | 0.968 | – | 0.926 | – | 0.892
S. pneumoniae D39V [4], partner 0.3 µg/mL | – | 0.89 | – | 0.908 | – | 0.897

Settings | Bliss interaction score
B. subtilis 168 [5] | 0.0317
S. aureus DSM 20231 [6] | -0.0507
S. aureus Newman [7] | -0.0636
S. pneumoniae D39V [8] | -0.0376

C[C@@H]1O[C@@H]1P(=O)(O)O [Fosfomycin] + CCN(CC)CCOC(=O)c1ccc(N)cc1 [Procaine]
fitness
Settings | partner 85.5 µg/mL | partner 171 µg/mL | partner 342 µg/mL
B. subtilis 168 [1], first compound 1.562 µg/mL | 0.711 | 0.704 | 0.646
B. subtilis 168 [1], first compound 3.124 µg/mL | 0.592 | 0.554 | 0.576
B. subtilis 168 [1], first compound 6.248 µg/mL | 0.377 | 0.372 | 0.322
S. aureus DSM 20231 [2], first compound 0.781 µg/mL | 0.736 | 0.812 | 0.833
S. aureus DSM 20231 [2], first compound 1.562 µg/mL | 0.603 | 0.64 | 0.634
S. aureus DSM 20231 [2], first compound 3.124 µg/mL | 0.427 | 0.513 | 0.489
S. aureus Newman [3], first compound 0.781 µg/mL | 0.576 | 0.54 | 0.562
S. aureus Newman [3], first compound 1.562 µg/mL | 0.535 | 0.553 | 0.516
S. aureus Newman [3], first compound 3.124 µg/mL | 0.198 | 0.197 | 0.162
S. pneumoniae D39V [4], first compound 1.25 µg/mL | 0.979 | 0.97 | 0.924
S. pneumoniae D39V [4], first compound 2.5 µg/mL | 0.951 | 0.921 | 0.905
S. pneumoniae D39V [4], first compound 5 µg/mL | 0.81 | 0.827 | 0.813

Settings | Bliss interaction score
B. subtilis 168 [5] | -0.0557
S. aureus DSM 20231 [6] | -0.0626
S. aureus Newman [7] | 0.0813
S. pneumoniae D39V [8] | -0.029

C[C@@H]1O[C@@H]1P(=O)(O)O [Fosfomycin] + CN1C2=CC=CC=C2N=C3C1=CC=CC3=O [Pyocyanin]
fitness
Settings | partner 0.325 µg/mL | partner 0.65 µg/mL | partner 1.25 µg/mL | partner 1.3 µg/mL | partner 2.5 µg/mL | partner 5 µg/mL
B. subtilis 168 [1], first compound 1.562 µg/mL | – | – | 0.671 | – | 0.632 | 0.536
B. subtilis 168 [1], first compound 3.124 µg/mL | – | – | 0.59 | – | 0.588 | 0.471
B. subtilis 168 [1], first compound 6.248 µg/mL | – | – | 0.465 | – | 0.412 | 0.376
S. aureus DSM 20231 [2], first compound 0.781 µg/mL | – | – | 0.673 | – | 0.707 | 0.541
S. aureus DSM 20231 [2], first compound 1.562 µg/mL | – | – | 0.653 | – | 0.629 | 0.472
S. aureus DSM 20231 [2], first compound 3.124 µg/mL | – | – | 0.508 | – | 0.509 | 0.39
S. aureus Newman [3], first compound 0.781 µg/mL | – | – | 0.547 | – | 0.548 | 0.424
S. aureus Newman [3], first compound 1.562 µg/mL | – | – | 0.439 | – | 0.465 | 0.38
S. aureus Newman [3], first compound 3.124 µg/mL | – | – | 0.0851 | – | 0.142 | 0.24
S. pneumoniae D39V [4], first compound 1.25 µg/mL | 0.992 | ≥ 1 | – | 0.774 | – | –
S. pneumoniae D39V [4], first compound 2.5 µg/mL | 0.971 | 0.923 | – | 0.791 | – | –
S. pneumoniae D39V [4], first compound 5 µg/mL | 0.837 | 0.899 | – | 0.745 | – | –

Settings | Bliss interaction score
B. subtilis 168 [5] | 0.072
S. aureus DSM 20231 [6] | 0.0453
S. aureus Newman [7] | 0.105
S. pneumoniae D39V [8] | 0.0461
